Several values for one entry are separate records, joined by “and”; a condition that tells them apart may be missing. Equal entries are not always repeated. Inconclusive results and toxic doses are left out.
Test system: P388 leukemia ip, CD2F1 mice, survival T/C
Assay: NCI In Vivo Anticancer Drug Screen. Data for tumor model P388 Leukemia (intraperitoneal) in CD2F1 (CDF1) mice
Settings: endpoint: median survival time, higher = longer survival
Protocol: The antitumor activity of compounds was measured in mice bearing transplantable tumors. Survival or tumor size were measured and the results are expressed as the measurement made in the treated group (T) divided by the measurement made in the vehicle treated control group (C). The tumor model used in this assay is P388 Leukemia (intraperitoneal) in CD2F1 (CDF1) mice

[1] = dose: 50.0 mg/kg/injection, schedule: Q01DX005 (ip), vehicle: Klucel (hydroxypropylcellulose) (HPC)
[2] = dose: 100.0 mg/kg/injection, schedule: Q01DX005 (ip), vehicle: Klucel (hydroxypropylcellulose) (HPC)
[3] = dose: 200.0 mg/kg/injection, schedule: Q01DX005 (ip), vehicle: Klucel (hydroxypropylcellulose) (HPC)
[4] = dose: 25.0 mg/kg/injection, schedule: Q01DX009 (ip), vehicle: saline with Tween-80
[5] = dose: 50.0 mg/kg/injection, schedule: Q01DX009 (ip), vehicle: saline with Tween-80
[6] = dose: 100.0 mg/kg/injection, schedule: Q01DX009 (ip), vehicle: saline with Tween-80
[7] = dose: 25.0 mg/kg/injection, schedule: Q01DX009 (ip), vehicle: Klucel (hydroxypropylcellulose) (HPC)
[8] = dose: 50.0 mg/kg/injection, schedule: Q01DX009 (ip), vehicle: Klucel (hydroxypropylcellulose) (HPC)
[9] = dose: 50.0 mg/kg/injection, schedule: Q01DX005 (ip), vehicle: saline with Tween-80
[10] = dose: 100.0 mg/kg/injection, schedule: Q01DX005 (ip), vehicle: saline with Tween-80
[11] = dose: 60.0 mg/kg/injection, schedule: Q01DX005 (ip), vehicle: saline with Tween-80
[12] = dose: 120.0 mg/kg/injection, schedule: Q01DX005 (ip), vehicle: saline with Tween-80
[13] = dose: 0.78 mg/kg/injection, schedule: Q01DX009 (ip), vehicle: Klucel (hydroxypropylcellulose) (HPC)
[14] = dose: 1.56 mg/kg/injection, schedule: Q01DX009 (ip), vehicle: Klucel (hydroxypropylcellulose) (HPC)
[15] = dose: 6.25 mg/kg/injection, schedule: Q01DX009 (ip), vehicle: Klucel (hydroxypropylcellulose) (HPC)

## CN1CCc2c1n(-c1ccccc1)c(=S)n(-c1ccccc1)c2=S
[1]
  T/C: 107 % of control
[2]
  T/C: 100 % of control
[3]
  T/C: 98 % of control

## COc1cc2c(cc1OC)C(Cc1ccccc1)=NCC2
[4]
  T/C: 100 % of control
[5]
  T/C: 95 % of control
[6]
  T/C: 90 % of control

## CCCCC(NC(=O)C(Cl)Cl)C(=O)O (stereo not given)
[1]
  T/C: 94 % of control
[2]
  T/C: 98 % of control
[3]
  T/C: 88 % of control

## O=S(=O)(OC1=CCCCCC1)C(F)(F)F
dose: 50.0 mg/kg/injection, schedule: Q01DX009 (ip), vehicle: olive oil, sesame oil, peanut oil
  T/C: 106 % of control
dose: 100.0 mg/kg/injection, schedule: Q01DX009 (ip), vehicle: olive oil, sesame oil, peanut oil
  T/C: 91 % of control
dose: 200.0 mg/kg/injection, schedule: Q01DX009 (ip), vehicle: olive oil, sesame oil, peanut oil
  T/C: 114 % of control

## CCOC(=O)N1C=CC2(C=C1)CCCCC2
dose: 25.0 mg/kg/injection, schedule: Q04DX003 (ip), vehicle: Klucel (hydroxypropylcellulose) (HPC)
  T/C: 101 % of control
dose: 50.0 mg/kg/injection, schedule: Q04DX003 (ip), vehicle: Klucel (hydroxypropylcellulose) (HPC)
  T/C: 106 % of control

## CN=S(=O)(OCCCCOS(=O)(=NC)c1ccc(C)cc1)c1ccc(C)cc1 (stereo not given)
dose: 50.0 mg/kg/injection, schedule: Q04DX003 (ip), vehicle: saline with Tween-80
  T/C: 116 % of control

## Cc1cc(NC(=S)SCc2ccc3c(c2)OCO3)ccc1Br
[7]
  T/C: 102 % of control and 107 % of control
[4]
  T/C: 96 % of control
[8]
  T/C: 107 % of control and 115 % of control and 116 % of control
[5]
  T/C: 91 % of control
dose: 50.0 mg/kg/injection, schedule: Q01DX009 (ip), vehicle: suspension in saline
  T/C: 93 % of control
dose: 100.0 mg/kg/injection, schedule: Q01DX009 (ip), vehicle: Klucel (hydroxypropylcellulose) (HPC)
  T/C: 107 % of control and 115 % of control and 118 % of control
[6]
  T/C: 100 % of control
dose: 100.0 mg/kg/injection, schedule: Q01DX009 (ip), vehicle: suspension in saline
  T/C: 104 % of control
dose: 200.0 mg/kg/injection, schedule: Q01DX009 (ip), vehicle: Klucel (hydroxypropylcellulose) (HPC)
  T/C: 107 % of control
dose: 200.0 mg/kg/injection, schedule: Q01DX009 (ip), vehicle: saline with Tween-80
  T/C: 100 % of control
dose: 200.0 mg/kg/injection, schedule: Q01DX009 (ip), vehicle: suspension in saline
  T/C: 93 % of control

## CCC(C)C(NC(=O)C(C)Oc1cc(Cl)c(Cl)cc1Cl)C(=O)O (stereo not given)
[9]
  T/C: 92 % of control
[10]
  T/C: 101 % of control

## O=C1CSC(c2ccc(F)cc2F)N1c1nncs1 (stereo not given)
[11]
  T/C: 92 % of control
[12]
  T/C: 91 % of control

## COc1ccccc1/C(=N/[N+](C)(C)C)C(C)C
dose: 6.25 mg/kg/injection, schedule: Q04DX002 (ip), vehicle: saline
  T/C: 100 % of control
dose: 12.5 mg/kg/injection, schedule: Q04DX002 (ip), vehicle: saline
  T/C: 100 % of control
dose: 25.0 mg/kg/injection, schedule: Q04DX002 (ip), vehicle: saline
  T/C: 93 % of control

## O=C(/C(O)=C/c1ccccc1)c1ccccc1
dose: 100.0 mg/kg/injection, schedule: Q04DX002 (ip), vehicle: saline with Tween-80
  T/C: 93 % of control
dose: 200.0 mg/kg/injection, schedule: Q04DX002 (ip), vehicle: saline with Tween-80
  T/C: 92 % of control
dose: 400.0 mg/kg/injection, schedule: Q04DX002 (ip), vehicle: saline with Tween-80
  T/C: 92 % of control

## C/C(=C/C(=O)Nc1ccccc1)Nc1onc(C)c1C
[11]
  T/C: 102 % of control
[12]
  T/C: 96 % of control
dose: 240.0 mg/kg/injection, schedule: Q01DX005 (ip), vehicle: saline with Tween-80
  T/C: 90 % of control

## Clc1ccc2nc(Cl)c3ccccc3c2c1
[13]
  T/C: 88 % of control and 93 % of control
[14]
  T/C: 87 % of control and 94 % of control
dose: 3.13 mg/kg/injection, schedule: Q01DX009 (ip), vehicle: Klucel (hydroxypropylcellulose) (HPC)
  T/C: 94 % of control
[15]
  T/C: 120 % of control and 89 % of control and 95 % of control
[7]
  T/C: 89 % of control
[8]
  T/C: 87 % of control

## C/C(=N\N)c1cnc(N)nc1C
dose: 60.0 mg/kg/injection, schedule: Q01DX005 (ip), vehicle: saline
  T/C: 101 % of control
dose: 120.0 mg/kg/injection, schedule: Q01DX005 (ip), vehicle: saline
  T/C: 107 % of control
dose: 240.0 mg/kg/injection, schedule: Q01DX005 (ip), vehicle: saline
  T/C: 100 % of control

## CCN(CC)c1ccc2cc(S(=O)(=O)c3ccc(Cl)cc3)c(=O)oc2c1
[9]
  T/C: 86 % of control
[10]
  T/C: 92 % of control

## O=c1oc2c(cc1-c1ccccc1)CCCC2
[1]
  T/C: 102 % of control
[2]
  T/C: 104 % of control
[3]
  T/C: 103 % of control

## NCC(=O)NCC(=O)NC(CCCN=C(N)N)C(=O)O (stereo not given)
dose: 50.0 mg/kg/injection, schedule: Q01DX005 (ip), vehicle: saline
  T/C: 100 % of control
dose: 100.0 mg/kg/injection, schedule: Q01DX005 (ip), vehicle: saline
  T/C: 103 % of control
dose: 200.0 mg/kg/injection, schedule: Q01DX005 (ip), vehicle: saline
  T/C: 99 % of control

## COc1cccc2c1C(=O)c1c(O)c3c(c(O)c1C2=O)C[C@@](O)(C(C)O)C[C@@H]3OC1CC(N(Cc2ccccc2)Cc2ccccc2)C(O)C(C)O1 (stereo not given in full)
dose: 4.7 mg/kg/injection, schedule: Q04DX003 (ip), vehicle: water
  T/C: 121 % of control
dose: 6.25 mg/kg/injection, schedule: Q01DX009 (ip), vehicle: water
  T/C: 165 % of control
dose: 12.5 mg/kg/injection, schedule: Q01DX009 (ip), vehicle: water
  T/C: 228 % of control and 233 % of control
dose: 25.0 mg/kg/injection, schedule: Q01DX009 (ip), vehicle: water
  T/C: 97 % of control
dose: 25.0 mg/kg/injection, schedule: Q04DX003 (ip), vehicle: water
  T/C: 194 % of control
dose: 37.5 mg/kg/injection, schedule: Q04DX003 (ip), vehicle: water
  T/C: 106 % of control
dose: 50.0 mg/kg/injection, schedule: Q04DX003 (ip), vehicle: water
  T/C: 233 % of control
dose: 75.0 mg/kg/injection, schedule: Q04DX003 (ip), vehicle: water
  T/C: 116 % of control

## C[C@]12CC[C@H](OC(=O)COc3ccc(N(CCCl)CCCl)cc3)C[C@@H]1CC[C@@H]1[C@@H]2CC[C@]2(C)NC(=O)CC[C@@H]12
dose: 2.0 mg/kg/injection, schedule: Q01DX009 (ip), vehicle: saline with Tween-80
  T/C: 120 % of control
dose: 8.0 mg/kg/injection, schedule: Q01DX009 (ip), vehicle: saline with Tween-80
  T/C: 151 % of control and 157 % of control and 192 % of control
dose: 16.0 mg/kg/injection, schedule: Q01DX009 (ip), vehicle: saline with Tween-80
  T/C: 180 % of control and 184 % of control and 192 % of control
dose: 32.0 mg/kg/injection, schedule: Q01DX009 (ip), vehicle: saline with Tween-80
  T/C: 107 % of control and 180 % of control and 217 % of control

## CC1(c2ccc(S(=O)(=O)c3ccccc3)cc2)OC(=O)C=CC1=O (stereo not given)
dose: 6.25 mg/kg/injection, schedule: Q01DX005 (ip), vehicle: saline with Tween-80
  T/C: 89 % of control
dose: 12.5 mg/kg/injection, schedule: Q01DX005 (ip), vehicle: saline with Tween-80
  T/C: 89 % of control
dose: 25.0 mg/kg/injection, schedule: Q01DX005 (ip), vehicle: saline with Tween-80
  T/C: 115 % of control
[9]
  T/C: 120 % of control

## CN1CCc2c(c3ccccc3c3ccccc23)C1
dose: 0.09 mg/kg/injection, schedule: Q01DX009 (ip), vehicle: Klucel (hydroxypropylcellulose) (HPC)
  T/C: 99 % of control
dose: 0.19 mg/kg/injection, schedule: Q01DX009 (ip), vehicle: Klucel (hydroxypropylcellulose) (HPC)
  T/C: 107 % of control
dose: 0.39 mg/kg/injection, schedule: Q01DX009 (ip), vehicle: Klucel (hydroxypropylcellulose) (HPC)
  T/C: 104 % of control
[13]
  T/C: 102 % of control
[14]
  T/C: 104 % of control and 91 % of control
dose: 3.12 mg/kg/injection, schedule: Q01DX009 (ip), vehicle: Klucel (hydroxypropylcellulose) (HPC)
  T/C: 94 % of control
[15]
  T/C: 86 % of control and 96 % of control
dose: 12.5 mg/kg/injection, schedule: Q01DX009 (ip), vehicle: Klucel (hydroxypropylcellulose) (HPC)
  T/C: 104 % of control
[7]
  T/C: 113 % of control and 92 % of control
[8]
  T/C: 105 % of control

## C[CH2][Ge]([CH2]C)[CH2]C.C[CH2][Ge]([CH2]C)[O]C(C)=O
dose: 50.0 mg/kg/injection, schedule: Q01DX009 (ip), vehicle: saline
  T/C: 95 % of control
dose: 100.0 mg/kg/injection, schedule: Q01DX009 (ip), vehicle: saline
  T/C: 98 % of control
dose: 200.0 mg/kg/injection, schedule: Q01DX009 (ip), vehicle: saline
  T/C: 96 % of control
